Source: patent US12310975B2, “Modulators of BCL6 proteolysis and associated methods of use” (Arvinas Operations, Inc., priority 2019, dated 2025)
Where two headings read alike, the source gives them in different places.

Target: BCL6 (Homo sapiens (Human), UniProt P41182)
Assay: Immunofluorescence high content imaging of BCL6 degradation in T47D cells
Type: cell-based
Settings: for DC50: class symbols A-D, read-out: EC50 (nM)*
Method in brief: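 BCL6 loss was quantified by high-content imaging (10×, 4 fields/well) after PFA fixation and anti-BCL6/Alexa-488 staining with Hoechst nuclear and CellMask counterstains. Compounds were applied for 3 days to T47D breast cancer cells in RPMI-10% FBS, 11 points, 3-fold steps, top 0.1 or 1 μM.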

Row | SMILES | Dmax (T47D cells) [%] | IC50 (T47D cells) [nM] | IC50 [nM] | Dmax (T47D) [%] | other results
1 | CNC(=O)COc1cc2cc(Nc3nc(N4CCN(CC5CCN(c6ccc7c(c6)C(=O)N(C6CCC(=O)NC6=O)C7=O)CC5)CC4)ncc3Cl)ccc2n(CCC2CC2)c1=O (stereo not shown) [compound 333, 2-{[6-({5-chloro-2-[4-({1-[2-(2,6-dioxopiperidin-3-yl)-1,3-dioxo-2,3-dihydro-1H-isoindol-5-yl]piperidin-4-yl}methyl)piperazin-1-yl]pyrimidin-4-yl}amino)-1-(2-cyclopropylethyl)-2-oxo-1,2-dihydroquinolin-3-yl]oxy}-N-methylacetamide] | 50 to 70 | < 10 | – | – | –
2 | CCn1c(=O)c(OCC(=O)NC)cc2cc(Nc3nc(N4CCC(CN5CC6(C5)CN(c5ccc7c(c5)C(=O)N(C5CCC(=O)NC5=O)C7=O)C6)CC4)ncc3Cl)ccc21 (stereo not shown) [compound 298, 2-{[6-({5-chloro-2-[4-({6-[2-(2,6-dioxopiperidin-3-yl)-1,3-dioxo-2,3-dihydro-1H-isoindol-5-yl]-2,6-diazaspiro[3.3]heptan-2-yl}methyl)piperidin-1-yl]pyrimidin-4-yl}amino)-1-ethyl-2-oxo-1,2-dihydroquinolin-3-yl]oxy}-N-methylacetamide] | – | – | < 10 | 50 to 70 | –
3 | CNC(=O)COc1cc2cc(Nc3nc(N4CCC(OCCNc5cccc6c5C(=O)N(C5CCC(=O)NC5=O)C6=O)CC4)ncc3Cl)ccc2n(C)c1=O (stereo not shown) [compound 80, 2-((6-((5-chloro-2-(4-(2-((2-(2,6-dioxopiperidin-3-yl)-1,3-dioxoisoindolin-4-yl)amino)ethoxy)piperidin-1-yl)pyrimidin-4-yl)amino)-1-methyl-2-oxo-1,2-dihydroquinolin-3-yl)oxy)-N-methylacetamide] | – | – | – | – | DC50: 50 to 100 nM
4 | CNC(=O)COc1cc2cc(Nc3nc(N4CCN(CC5CCN(c6cccc(C(=O)NC7CCC(=O)NC7=O)n6)CC5)CC4)ncc3Cl)ccc2n(C)c1=O (stereo not shown) [compound 320, 6-[4-({4-[5-chloro-4-({1-methyl-3-[(methylcarbamoyl)methoxy]-2-oxo-1,2-dihydroquinolin-6-yl}amino)pyrimidin-2-yl]piperazin-1-yl}methyl)piperidin-1-yl]-N-(2,6-dioxopiperidin-3-yl)pyridine-2-carboxamide] | < 50 | < 10 | – | – | –
5 | CNC(=O)COc1cc2cc(Nc3nc(N4CCC(OC5CC6(CCN(c7cccc8c7C(=O)N(C7CCC(=O)NC7=O)C8=O)CC6)C5)CC4)ncc3Cl)ccc2n(C(C)C)c1=O (stereo not shown) [compound 391, 2-{[6-({5-chloro-2-[4-({7-[2-(2,6-dioxopiperidin-3-yl)-1,3-dioxo-2,3-dihydro-1H-isoindol-4-yl]-7-azaspiro[3.5]nonan-2-yl}oxy)piperidin-1-yl]pyrimidin-4-yl}amino)-2-oxo-1-(propan-2-yl)-1,2-dihydroquinolin-3-yl]oxy}-N-methylacetamide] | ≥ 70 | < 10 | – | – | –
6 | CC(=O)COc1cc2cc(Nc3nc(N4CCN(C(C)(C)C5CCN(c6ccc7c(c6)C(=O)N(C6CCC(=O)NC6=O)C7=O)CC5)CC4)ncc3Cl)ccc2n(C)c1=O (stereo not shown) [compound 257, 5-(4-(2-(4-(5-chloro-4-((1-methyl-2-oxo-3-(2-oxopropoxy)-1,2-dihydroquinolin-6-yl)amino)pyrimidin-2-yl)piperazin-1-yl)propan-2-yl)piperidin-1-yl)-2-(2,6-dioxopiperidin-3-yl)isoindoline-1,3-dione] | – | – | 10 to 50 | ≥ 70 | –
7 | CNC(=O)COc1cc2cc(Nc3nc(N4CCN(CC5(F)CCN(c6ccc(C(=O)NC7CCC(=O)NC7=O)c(OC)c6)CC5)CC4)ncc3Cl)ccc2n(C)c1=O (stereo not shown) [compound 367, 4-[4-({4-[5-chloro-4-({1-methyl-3-[(methylcarbamoyl)methoxy]-2-oxo-1,2-dihydroquinolin-6-yl}amino)pyrimidin-2-yl]piperazin-1-yl}methyl)-4-fluoropiperidin-1-yl]-N-(2,6-dioxopiperidin-3-yl)-2-methoxybenzamide] | 50 to 70 | < 10 | – | – | –
8 | CNC(=O)COc1cc2cc(Nc3nc(N4CCC(CN5CCC6(CC5)CN(c5ccc7c(c5)C(=O)N(C5CCC(=O)NC5=O)C7=O)C6)CC4)ncc3Cl)ccc2n(C(C)C)c1=O (stereo not shown) [compound 372, 2-{[6-({5-chloro-2-[4-({2-[2-(2,6-dioxopiperidin-3-yl)-1,3-dioxo-2,3-dihydro-1H-isoindol-5-yl]-2,7-diazaspiro[3.5]nonan-7-yl}methyl)piperidin-1-yl]pyrimidin-4-yl}amino)-2-oxo-1-(propan-2-yl)-1,2-dihydroquinolin-3-yl]oxy}-N-methylacetamide] | 50 to 70 | < 10 | – | – | –
9 | CNC(=O)COc1cc2cc(Nc3nc(N4CCN(CC5CCN(c6cc7c(cc6OC)C(=O)N(C6CCC(=O)NC6=O)C7=O)CC5)CC4)ncc3Cl)ccc2n(C(C)C)c1=O (stereo not shown) [compound 404, 2-{[6-({5-chloro-2-[4-({1-[2-(2,6-dioxopiperidin-3-yl)-6-methoxy-1,3-dioxo-2,3-dihydro-1H-isoindol-5-yl]piperidin-4-yl}methyl)piperazin-1-yl]pyrimidin-4-yl}amino)-2-oxo-1-(propan-2-yl)-1,2-dihydroquinolin-3-yl]oxy}-N-methylacetamide] | ≥ 70 | 10 to 50 | – | – | –
10 | CNC(=O)COc1cc2cc(Nc3nc(N4CCC(OCCOCCOc5cc(-c6scnc6C)ccc5CNC(=O)[C@@H]5C[C@@H](O)CN5C(=O)C(c5cc(C)no5)C(C)C)CC4)ncc3Cl)ccc2n(C)c1=O (stereo partly drawn) [compound 53, (2S,4R)-N-(2-(2-(2-((1-(5-chloro-4-((1-methyl-3-(2-(methylamino)-2-oxoethoxy)-2-oxo-1,2-dihydroquinolin-6-yl)amino)pyrimidin-2-yl)piperidin-4-yl)oxy)ethoxy)ethoxy)-4-(4-methylthiazol-5-yl)benzyl)-4-hydroxy-1-(3-methyl-2-(3-methylisoxazol-5-yl)butanoyl)pyrrolidine-2-carboxamide] | – | – | – | – | DC50: > 100 nM
11 | CNC(=O)COc1cc2cc(Nc3nc(N4CCC(OC5CC6(C5)CN(c5ccc(C(=O)NC7CCC(=O)NC7=O)c(OC)c5)C6)CC4)ncc3Cl)ccc2n(C(C)C)c1=O (stereo not shown) [compound 429, 4-[6-({1-[5-chloro-4-({3-[(methylcarbamoyl)methoxy]-2-oxo-1-(propan-2-yl)-1,2-dihydroquinolin-6-yl}amino)pyrimidin-2-yl]piperidin-4-yl}oxy)-2-azaspiro[3.3]heptan-2-yl]-N-(2,6-dioxopiperidin-3-yl)-2-methoxybenzamide] | ≥ 70 | < 10 | – | – | –
12 | CC(=O)COc1cc2cc(Nc3nc(C#CC4CCN(c5cccc6c5C(=O)N(C5CCC(=O)NC5=O)C6=O)CC4)ncc3Cl)ccc2n(C)c1=O (stereo not shown) [compound 184, 4-(4-((5-chloro-4-((1-methyl-2-oxo-3-(2-oxopropoxy)-1,2-dihydroquinolin-6-yl)amino)pyrimidin-2-yl)ethynyl)piperidin-1-yl)-2-(2,6-dioxopiperidin-3-yl)isoindoline-1,3-dione] | – | – | 10 to 50 | 50 to 70 | –
13 | CNC(=O)COc1cc2cc(Nc3nc(N4CCN(C(C)(C)C5CCN(c6cccc7c6C(=O)N(C6CCC(=O)NC6=O)C7=O)CC5)CC4)ncc3Cl)ccc2n(C(C)C)c1=O (stereo not shown) [compound 307, 2-{[6-({5-chloro-2-[4-(2-{1-[2-(2,6-dioxopiperidin-3-yl)-1,3-dioxo-2,3-dihydro-1H-isoindol-4-yl]piperidin-4-yl}propan-2-yl)piperazin-1-yl]pyrimidin-4-yl}amino)-2-oxo-1-(propan-2-yl)-1,2-dihydroquinolin-3-yl]oxy}-N-methylacetamide] | – | – | < 10 | 50 to 70 | –
14 | CNC(=O)COc1cc2cc(Nc3nc(N4CCC(OCCOCCOCCOCCOCCOCCOCC(=O)N[C@H](C(=O)N5C[C@H](O)C[C@H]5C(=O)NCc5ccc(-c6scnc6C)cc5)C(C)(C)C)CC4)ncc3Cl)ccc2n(C)c1=O [compound 83, (2S,4R)-1-((S)-2-(tert-butyl)-23-((1-(5-chloro-4-((1-methyl-3-(2-(methylamino)-2-oxoethoxy)-2-oxo-1,2-dihydroquinolin-6-yl)amino)pyrimidin-2-yl)piperidin-4-yl)oxy)-4-oxo-6,9,12,15,18,21-hexaoxa-3-azatricosanoyl)-4-hydroxy-N-(4-(4-methylthiazol-5-yl)benzyl)pyrrolidine-2-carboxamide] | – | – | – | – | DC50: 50 to 100 nM
15 | CNC(=O)COc1cc2cc(Nc3nc(N4CCC(OCCOCCOCCOCCOc5ccc6c(c5)CN(C5CCC(=O)NC5=O)C6=O)CC4)ncc3Cl)ccc2n(C)c1=O (stereo not shown) [compound 59, 2-((6-((5-chloro-2-(4-(2-(2-(2-(2-((2-(2,6-dioxopiperidin-3-yl)-1-oxoisoindolin-5-yl)oxy)ethoxy)ethoxy)ethoxy)ethoxy)piperidin-1-yl)pyrimidin-4-yl)amino)-1-methyl-2-oxo-1,2-dihydroquinolin-3-yl)oxy)-N-methylacetamide] | – | – | – | – | DC50: > 100 nM
16 | CNC(=O)COc1cc2cc(Nc3nc(N4CCN(CC5(O)CCN(c6ccc7c(c6)C(=O)N(C6CCC(=O)NC6=O)C7=O)CC5)CC4)ncc3Cl)ccc2n(C)c1=O (stereo not shown) [compound 240, 2-((6-((5-chloro-2-(4-((1-(2-(2,6-dioxopiperidin-3-yl)-1,3-dioxoisoindolin-5-yl)-4-hydroxypiperidin-4-yl)methyl)piperazin-1-yl)pyrimidin-4-yl)amino)-1-methyl-2-oxo-1,2-dihydroquinolin-3-yl)oxy)-N-methylacetamide] | – | – | 10 to 50 | 50 to 70 | –
17 | CCn1c(=O)c(OCC(=O)NC)cc2cc(Nc3nc(N4CCN(CC5CCN(c6cccc(C(=O)NC7CCC(=O)NC7=O)c6F)CC5)CC4)ncc3Cl)ccc21 (stereo not shown) [compound 295, 3-[4-({4-[5-chloro-4-({1-ethyl-3-[(methylcarbamoyl)methoxy]-2-oxo-1,2-dihydroquinolin-6-yl}amino)pyrimidin-2-yl]piperazin-1-yl}methyl)piperidin-1-yl]-N-(2,6-dioxopiperidin-3-yl)-2-fluorobenzamide] | – | – | < 10 | 50 to 70 | –
18 | CNC(=O)COc1cc2cc(Nc3nc(N4CCN(CC5CCN(c6ccc7c(c6)C(=O)N(C6CCC(=O)NC6=O)C7=O)CC5)CC4)c(Cl)cc3Cl)ccc2n(C)c1=O (stereo not shown) [compound 254, 2-((6-((3,5-dichloro-6-(4-((1-(2-(2,6-dioxopiperidin-3-yl)-1,3-dioxoisoindolin-5-yl)piperidin-4-yl)methyl)piperazin-1-yl)pyridin-2-yl)amino)-1-methyl-2-oxo-1,2-dihydroquinolin-3-yl)oxy)-N-methylacetamide] | – | – | ≥ 100 | – | –
